{
  "source": "paper PMC11763059",
  "about": "“GENI as an AMPK Activator Binds α and γ Subunits and Improves the Memory Dysfunction of Alzheimer’s Disease Mouse Models via Autophagy and Neuroprotection” (Antioxidants, 2025)",
  "key": {"PC12 cells [1]": {"system": "PC12 cells", "assay": "Autophagy flow assay (CYTO-ID) in PC12 cells", "assay_type": "cell-based", "conditions": "5 mM 3-MA + 10 μM GENI + 10 μM CQ", "method": "The experiment was carried out according to the instructions of the CYTO-ID autophagy detection kit (Enzo Biochem, New York, NY, USA). In brief, we seeded 7.5 × 10^4 PC12 cells in each well of a 24-well plate using the cell slide method. The cells were incubated for 24 h at 37 °C in a 5% CO2 incubator. The experiment was divided into control (0.5% DMSO), positive control rapamycin (Rap 500 nM + chloroquine (CQ)), GENI treated-group (10 μM GENI + 10 μM CQ), 3-MA inhibitor group (5 mM 3-MA + 10 μM CQ) and GENI + 3MA group (5 mM 3-MA + 10 μM GENI + 10 μM CQ). The optimum concentration of 3MA inhibitor was referenced in the other report. At first, 0.5 mL of serum-free DMEM (plus 1% dual anti-penicillin–streptomycin) containing 3-MA (5 mM) was used to replace the medium in two groups as well as 0.5 mL of serum-free DMEM was added in the other groups, respectively. After treating for 6 h, 0.5 mL of DMEM containing DMSO (0.5%), Rap (500 nM) + CQ (10 μM), GENI (10 μM) + CQ (10 μM), CQ (10 μM), and GENI (10 μM) + CQ (10 μM) was added into the corresponding group, respectively. After 18 h, we removed the medium and washed cells twice with 1× assay buffer containing 5% FBS. We then added CYTO-ID Green detection reagent and Hocchst 33342 nuclear stain to the cells, which were incubated at 37 °C for 45 min. After three washes with 1× assay buffer, we fixed cells with 4% paraformaldehyde for 20 min. After three washes with 1× assay buffer, we observed the cells with an upright two-photon confocal microscope (Olympus FV1000BX-51, Tokyo, Japan)."}, "PC12 cells [2]": {"system": "PC12 cells", "assay": "Western blot of LC3 II/LC3 I in the autophagy flow assay", "assay_type": "cell-based", "conditions": "3-MA 5 mM", "method": "(§1) Western blot analysis for p-AMPK α, AMPK α, p-mTOR, mTOR, p-ULK1, ULK1, and LC3-I/II was conducted according to the information described in the materials and methods section of Supplementary Information.\n1.3. Western blot analysis.\nFor PC12 cell samples, we seeded 2 × 10^6 PC12 cells in each 60 mm dish containing 5 mL of DMEM and incubated the dish for 24 h. For the dose-dependent experiment of GENI, GENI (1, 3 and 10 μM) was added to the dishes and incubated for a period of time (2 hours for p-AMPK α, AMPK α, 48 hours for p-mTOR, mTOR and p-ULK1, ULK1; 8 hours for LC3-I/II). Cells were then collected, lysed using RAPI lysis buffer and centrifuged. The supernatants of each group were used as protein samples. For the protein samples of autophagy flow assay, we seeded 2 × 10^6 PC12 cells in each 60 mm dish containing 5 mL of DMEM and incubated the dish for 24 h.\nThe GENI, rapamycin and inhibitors, such as chloroquine and 3-MA were added according to the method of autophagy flow assay. After treatment of 18 h, cells were then collected, lysed using RAPI lysis buffer and centrifuged. […] The protein concentration was measured with a BCA assay kit (Beijing Cowin Biotech Company, Beijing, China). […] Bands were quantitatively measured using ImageJ software (National Institutes of Health, Bethesda, MD, USA)."}, "[3]": {"assay": "Organ weights in the D-gal induced AD mice experiment", "conditions": "D-gal + DON 3 mg/kg, gavage 10 weeks, mean ± SEM, n 7", "description": "(§3) Each group comprised 10 mice. […] Dosing lasted for 10 weeks. […] The mice were sacrificed after 10 weeks of administration.\n(§4) At the end of the animal experiment, the epididymis fat, heart, liver, spleen, and kidney of the mice were removed for weighing analysis."}, "[4]": {"assay": "Serum biochemical index of D-galactose mice", "conditions": "D+DON 3 mg/kg, mean ± SEM, n 7", "description": "as §3, §4"}, "natural aging AD mice [5]": {"system": "natural aging AD mice", "assay": "Behaviour tests in naturally aged mice with AD", "assay_type": "in vivo", "method": "(§2) Each group had 10 mice. GENI was dissolved in ultrapure water and administered by gavage, whereas Dor was dissolved in normal saline. The pH was adjusted to pH 5 with 0.1 M hydrochloric acid to the clarified solution and administered by intraperitoneal injection. The dosing experiment also lasted 10 weeks. Animal behavioral experiments and sampling at the end of the animal experiment were performed as described above.\nThe Y-maze is mainly used to study the spatial working memory ability of rodents. The Y-maze consisted of three equal-length arms (50 cm × 18 cm × 35 cm), and the angle between each two arms was 120 degrees. The mice were placed at the end of any arm of the Y-maze and allowed to explore freely for 8 min. The behavioral changes including the total number of entries and alternation (successively entering all three arms of the Y-maze once in turn) were recorded. Percentage altercation = alternation/(entries-2) × 100%. The Y-maze could effectively reflect the ability of animals to recognize and remember novel environments.\nNOR was used to detect memory in rodents. We prepared a 40 × 40 × 40 cm square box, camera equipment, and behavioral analysis software. We chose three objects A, B, and C, where objects A and B were exactly the same, and object C was very different from objects A and B. After the start of the experiment, the mice were allowed to acclimate freely in the experimental apparatus for 10 min. Objects A and B were placed into the box, and the mice were allowed to explore for 5 min. We then recorded the exploration time and times. After 1 h, A and C or B and C were placed into the box. After letting the mice explore for 5 min, we recorded the exploration time of the original object and the new object. Discrimination index = exploration time of new objects/total exploration time × 100%.\nThe MWM installation consisted of a circular pool (120 cm in diameter and 50 cm in height), camera equipment, and a computer analysis system. In the first stage, the platform position was fixed, and mice were placed into the pool from any three of the four origins on the pool facing away from the pool wall. The time when it took for the mouse to find the platform within 120 s, called escape latency, was recorded. The training period lasted 4 days. The escape latency of the mice was recorded daily, and the average value was used as an index to evaluate the ability of learning and memory. On the 5th day, the platform was evacuated by the experimenter. The mice were placed against the platform into the water from any water entry point, and they were allowed to swim freely for 60 s. We then recorded the number of times that they crossed the platform."}, "AMPK": {"system": "AMPK", "assay": "Inhibitor experiment with Dor in PC12 cells (Western blot)", "assay_type": "cell-based", "conditions": "Dor pre-treatment then 10 μM GENI 2 h", "method": "Firstly, 2 × 10^6 cells were added to a 60 mm Petri dish containing 5 mL of DMEM and incubated for 24 h. Secondly, the C group, GENI group, Dor group, and GENI+ Dor group were established. The dishes containing the Dor group were pre-treated with 5 μM Dor for 2 h, and the remaining groups were balanced with DMSO. The group containing 10 μM GENI was added, and the remaining groups were balanced with DMSO. After incubation for 2 h, protein extraction was performed for the Western blot experiment."}, "natural aging AD mice [6]": {"system": "natural aging AD mice", "assay": "Immunohistochemistry and Western blot of brain in naturally aged AD mice", "assay_type": "in vivo", "conditions": "Dor 2 mg/kg + GENI 25 mg/kg", "method": "as §2\nFirstly, the three mice of each group were subjected to heart perfusion at the end of the animal experiment, and the whole brain was removed and placed in 15 mL of 4% paraformaldehyde and stored at 4 °C for 24 h. Secondly, we changed 4% paraformaldehyde into 15% sucrose solution and stored the solution at 4 °C for 24 h. We then changed the solution to 30% sucrose solution to dehydrate for 2 days. Thirdly, the mouse brain tissue was embedded in a cryo-embedding medium, and about 80 slices with a thickness of 20 μm were cut in the hippocampus using a cryostat (Thermal Fisher, Shanghai, China). The sections of mice in each group were immunohistochemically stained with primary antibodies, such as neuronal nuclear anti gen (NeuN), ionized calcium-binding adapter molecule 1 (Iba-1), inducible nitric oxide synthase (iNOS, pro-inflammatory factors), synaptophysin (Syp), and glial fibrillary acidic protein (GFAP), and secondary antibody. The product number and usage ratios of primary and secondary antibodies are detailed in Supplementary Table S4. Finally, the sections were observed under an upright two-photon confocal microscope (Olympus BX61, Tokyo, Japan) and recorded by a camera. The pictures were digitized with ImageJ software V1.8.0.112 (National Institutes of Health, Bethesda, MD, USA).\nas §1\n1.3. Western blot analysis. […]\nThe supernatants of each group were used as protein samples. For animal samples, an appropriate amount of tissue, such as cerebral cortex and hippocampus (50–100 mg), of each group was weighed, and we added lysis buffer with 1:9 ratios. After grinding and centrifuging, the supernatants of each group were used as protein samples. The protein concentration was measured with a BCA assay kit (Beijing Cowin Biotech Company, Beijing, China). Sodium dodecyl sulphate polyacrylamide gel electrophoresis (SDS-PAGE) was used to separate proteins (15 μg), which were transferred to PVDF membranes. The membrane was incubated with primary and secondary antibodies (Supplementary Table S5 for details). Antigens were visualised using a high-sensitivity chemiluminescence detection kit (Beijing Cowin Biotech Company, Beijing, China). Bands were quantitatively measured using ImageJ software (National Institutes of Health, Bethesda, MD, USA)."}, "APP/PS1 mice": {"system": "APP/PS1 mice", "parameters": "method as in PMID 31837991", "conditions": "APP/PS1 mice ref 27; cited from earlier work"}},
  "data": [
    {"smiles": "Cn1cnc(N)c2ncnc1-2", "note": "[3-MA, reference compound]", "values": [
      {"measurement": "autophagy induced by GENI, effect of the inhibitor", "setting": "PC12 cells [1]", "result": "inhibited"},
      {"measurement": "conversion of LC3 I to LC3 II induced by GENI, effect of the inhibitor", "setting": "PC12 cells [2]", "result": "diminished"}
    ]},
    {"smiles": "COc1cc2c(cc1OC)C(=O)C(CC1CCN(Cc3ccccc3)CC1)C2", "note": "(stereo not shown) [DON, donepezil]", "values": [
      {"measurement": "Fat weight", "setting": "[3]", "result": "0.728 ± 0.302", "unit": "g"},
      {"measurement": "Heart weight", "setting": "[3]", "result": "0.196 ± 0.048", "unit": "g"},
      {"measurement": "Kidney weight", "setting": "[3]", "result": "0.547 ± 0.034", "unit": "g"},
      {"measurement": "Spleen weight", "setting": "[3]", "result": "0.113 ± 0.015", "unit": "g"},
      {"measurement": "ALB", "setting": "[4]", "result": "24.0 ± 1.6", "unit": "g/L"}
    ]},
    {"smiles": "c1cc(-c2cnn3cc(-c4ccc(OCCN5CCCCC5)cc4)cnc23)ccn1", "note": "[Dor, dorsomorphin]", "values": [
      {"measurement": "GENI effects on escape latency and number of crossing platforms, effect of the AMPK inhibitor", "setting": "natural aging AD mice [5]; Dor 2 mg/kg + GENI 25 mg/kg", "result": "partially reduced"},
      {"measurement": "improvement in cognitive function by GENI in Y maze and NOR tests, effect of the AMPK inhibitor", "setting": "natural aging AD mice [5]; Dor 2 mg/kg i.p. once every 2 days + GENI 25 mg/kg", "result": "significantly decreased"},
      {"measurement": "phosphorylation of AMPK, ULK1, and LC3 II after GENI treatment, effect of the AMPK inhibitor", "setting": "AMPK", "result": "significantly decreased"},
      {"measurement": "activation of the AMPK/mTOR/ULK1 signaling pathway by GENI in hippocampus and cortex, effect of the AMPK inhibitor", "setting": "natural aging AD mice [6]", "result": "suppressed"},
      {"measurement": "anti-inflammation effects of GENI on activated microglia and astrocytes and iNOS expression, effect of the AMPK inhibitor", "setting": "natural aging AD mice [6]", "result": "significantly suppressed"},
      {"measurement": "effects of GENI on APP, Tau, Aβ and p-Tau, effect of the AMPK inhibitor", "setting": "natural aging AD mice [6]", "result": "inhibited"},
      {"measurement": "increase in neurons and synaptophysin expression in hippocampus and cortex by GENI, effect of the AMPK inhibitor", "setting": "natural aging AD mice [6]", "result": "significantly diminished"}
    ]},
    {"smiles": "O=C(O)C1=CO[C@@H](O[C@@H]2O[C@H](CO)[C@@H](O)[C@H](O)[C@H]2O)[C@@H]2C(CO)=CC[C@H]12", "note": "[GPA, geniposidic acid]", "values": [
      {"measurement": "Aβ deposition in brains", "setting": "APP/PS1 mice", "result": "reduce"},
      {"measurement": "spatial learning and memory abilities", "setting": "APP/PS1 mice", "result": "significantly improve"}
    ]}
  ]
}
